Where two headings read alike, the source gives them in different places.
Legend:
[1] = Fluorometry: extinction, quantum yield, fluorescence in DMSO/EtOH; type: physicochemical
Method: The TEMPO- and PROXYL-fluorocoxib probes are non-fluorescent (Φfl<0.3) in their non-trapped form, whereas fluorocoxib A or B are highly fluorescent (Φfl[…]) (FIG. 13). However, the absorbance and fluorescence of the TEMPO- and PROXYL-fluorocoxib probes increases in a time-dependent fashion when incubated in a DMSO/EtOH solution (FIGS. 14-15). Referring to FIG. 15, it is noted that at about 16 hours, fluorescence (ex 586 nm) read about 120,000 cps at 607 nm. Turning to FIG. 16, as compared to 5-ROX acid, which had extinction of 36/mM/cm at 580 nm and quantum yield of 0.94 at 604 nm, and fluorocoxib A, which had extinction of 45/mM/cm at 579 nm and quantum yield of 0.93 at 602 nm, fluorocoxib Q1 had extinction of less than 0.4/mM/cm at 586 nm and quantum yield of less than 0.36 at 607 nm. Without wishing to be bound by theory, it is believed that the time-dependent increase in fluorescence and measured fluorescence at 607 nm is the result of reduction/oxidation of fluorocoxib Q1 in the DMSO/EtOH solution (FIG. 16).
Fluorometry. Steady state fluorescence excitation and emission spectra were determined for each compound with a Spex 1681 Fluorolog spectrofluorometer, equipped with a 450 W xenon arc lamp. […]

ovine COX-1 = target: T1, ovine COX-1 (Ovis aries, UniProt P05979); test: In vitro purified COX-1 inhibition assay (TLC, 14C-arachidonic acid); type: biochemical
T1 sequence (P05979 25-600): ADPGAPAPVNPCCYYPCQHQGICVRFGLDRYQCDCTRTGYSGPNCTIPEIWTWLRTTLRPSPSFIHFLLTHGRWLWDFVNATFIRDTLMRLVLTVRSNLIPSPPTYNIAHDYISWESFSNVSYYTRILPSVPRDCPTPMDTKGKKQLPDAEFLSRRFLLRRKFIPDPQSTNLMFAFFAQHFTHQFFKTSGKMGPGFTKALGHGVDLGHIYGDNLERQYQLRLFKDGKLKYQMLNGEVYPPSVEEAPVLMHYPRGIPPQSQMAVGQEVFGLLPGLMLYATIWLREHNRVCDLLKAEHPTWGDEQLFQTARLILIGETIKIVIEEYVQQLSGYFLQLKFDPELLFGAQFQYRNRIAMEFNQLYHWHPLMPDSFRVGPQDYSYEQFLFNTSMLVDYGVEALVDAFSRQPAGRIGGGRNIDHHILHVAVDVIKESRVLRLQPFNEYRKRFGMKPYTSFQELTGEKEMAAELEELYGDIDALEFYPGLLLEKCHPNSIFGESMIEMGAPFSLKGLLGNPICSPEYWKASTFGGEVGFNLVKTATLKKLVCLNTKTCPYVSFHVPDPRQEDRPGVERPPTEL
Method: (§1) The in vitro cyclooxygenase (ovine COX-1 or human COX-2) inhibitory activities of these probes were tested by a previously described TLC assay (FIGS. 19-21). Briefly, reaction mixtures of 200 μL consisted of hematin-reconstituted protein in 100 mM Tris-HCl, pH 8.0, 500 μM phenol, and [1-^14C]arachidonic acid (50 μM, about 55-57 mCi/mmol, Perkin Elmer).
Inhibition Assay Using Purified COX-1 and COX-2. Inhibition of purified ovine COX-1 or mouse COX-2 by test compounds was assayed by a previously described method, which quantifies the conversion of [1-^14C]arachidonic acid to [1-^14C]prostaglandin products. Reaction mixtures of 200 ∝L consisted of hematin-reconstituted protein in 100 mM Tris-HCl, pH 8.0, 500 μM phenol, and [1-^14C]arachidonic acid (50 μM, ˜55-57 mCi/mmol, Perkin Elmer). […] Reactions were terminated by solvent extraction in diethyl ether:methanol:1 M citrate buffer, pH 4.0 (30:4:1). The phases were separated by centrifugation at 2000 g for 2 min, and the organic phase was spotted on a thin-layer chromatography plate (EMD Kieselgel 60, VWR). The plate was developed in ethyl acetate:methylene chloride:glacial AcOH (75:25:1) at 4° C. Radiolabeled products were quantified with a radioactivity scanner (Bioscan, Inc., Washington, D.C.).

murine COX-2 = target: T2, murine COX-2 (Mus musculus, UniProt Q05769); test: In vitro purified COX-2 inhibition assay (TLC, 14C-arachidonic acid); type: biochemical; details: for COX-2 Selectivity Index (COX-1 IC50/COX-2 IC50): in vitro, purified enzymes
T2 sequence (Q05769 18-604): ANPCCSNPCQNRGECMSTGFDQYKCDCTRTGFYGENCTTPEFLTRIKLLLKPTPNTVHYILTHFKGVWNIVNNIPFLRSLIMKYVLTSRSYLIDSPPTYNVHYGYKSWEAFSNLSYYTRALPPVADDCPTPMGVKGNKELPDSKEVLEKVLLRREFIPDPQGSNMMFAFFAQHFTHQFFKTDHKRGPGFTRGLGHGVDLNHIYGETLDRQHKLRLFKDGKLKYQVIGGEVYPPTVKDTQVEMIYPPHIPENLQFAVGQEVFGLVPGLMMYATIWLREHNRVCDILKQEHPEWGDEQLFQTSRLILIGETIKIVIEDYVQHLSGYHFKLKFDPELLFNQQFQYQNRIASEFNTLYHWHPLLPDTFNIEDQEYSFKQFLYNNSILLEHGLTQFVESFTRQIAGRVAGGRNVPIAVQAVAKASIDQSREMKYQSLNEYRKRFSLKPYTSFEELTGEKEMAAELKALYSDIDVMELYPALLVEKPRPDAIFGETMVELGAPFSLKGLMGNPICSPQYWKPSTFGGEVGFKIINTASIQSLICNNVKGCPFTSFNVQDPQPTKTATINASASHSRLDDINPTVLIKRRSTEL
Method: as §1
Inhibition Assay Using Purified COX-1 and COX-2. Inhibition of purified ovine COX-1 or mouse COX-2 by test compounds was assayed by a previously described method, which quantifies the conversion of [1-^14C]arachidonic acid to [1-^14C]prostaglandin products. Reaction mixtures of 200 ∝L consisted of hematin-reconstituted protein in 100 mM Tris-HCl, pH 8.0, 500 μM phenol, and [1-^14C]arachidonic acid (50 μM, ˜55-57 mCi/mmol, Perkin Elmer). For the time-dependent inhibition assay, hematin-reconstituted COX-1 ([…]) was preincubated at 25° C. for 17 min and 37° C. for 3 min with varying inhibitor concentrations in dimethylsulfoxide followed by the addition of [1-^14C]arachidonic acid (50 μM) for 30 s at 37° C. Reactions were terminated by solvent extraction in diethyl ether:methanol:1 M citrate buffer, pH 4.0 (30:4:1). The phases were separated by centrifugation at 2000 g for 2 min, and the organic phase was spotted on a thin-layer chromatography plate (EMD Kieselgel 60, VWR). The plate was developed in ethyl acetate:methylene chloride:glacial AcOH (75:25:1) at 4° C. Radiolabeled products were quantified with a radioactivity scanner (Bioscan, Inc., Washington, D.C.).

hCOX-2 in 1483 cells = target: T3, hCOX-2 in 1483 cells (Homo sapiens, UniProt P35354); test: Intact cell COX-2 inhibition assay in 1483 HNSCC cells; type: cell-based; details: high throughput screening, intact cancer cells; read-out: COX-2 positive 1483 HNSCC cells IC50
T3 construct: cells that express high levels of COX-2 were selected; endogenous in cells; host or cells: 1483 human head and neck squamous cell carcinoma (HNSCC) cells
T3 sequence (P35354 18-604): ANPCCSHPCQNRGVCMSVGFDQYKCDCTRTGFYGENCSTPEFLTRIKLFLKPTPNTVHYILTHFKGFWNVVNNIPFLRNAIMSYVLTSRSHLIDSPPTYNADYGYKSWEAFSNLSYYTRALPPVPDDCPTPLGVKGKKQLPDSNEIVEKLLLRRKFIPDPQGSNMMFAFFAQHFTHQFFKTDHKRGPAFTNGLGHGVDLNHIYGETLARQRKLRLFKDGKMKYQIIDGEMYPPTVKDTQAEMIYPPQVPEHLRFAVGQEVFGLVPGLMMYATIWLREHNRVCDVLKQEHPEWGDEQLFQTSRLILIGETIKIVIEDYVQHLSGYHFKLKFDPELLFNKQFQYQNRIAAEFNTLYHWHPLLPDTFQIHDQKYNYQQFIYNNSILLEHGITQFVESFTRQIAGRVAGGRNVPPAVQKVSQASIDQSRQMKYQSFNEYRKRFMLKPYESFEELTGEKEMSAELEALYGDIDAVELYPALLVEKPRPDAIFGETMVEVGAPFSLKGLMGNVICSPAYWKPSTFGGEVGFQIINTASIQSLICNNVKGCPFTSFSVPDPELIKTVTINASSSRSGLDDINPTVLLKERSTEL
Method: Following the promising results from the purified enzyme assay, the ability of compound 1 to inhibit COX-2 in intact cells was examined using a previously reported method. 1483 human head and neck squamous cell carcinoma (1483 HNSCC) cells that express high levels of COX-2 were selected. […]
Cell Culture and In Vitro Intact Cell Metabolism Assay. Inhibition of COX-2 in intact cells by test compounds was assayed by a previously described method. Human 1483 head and neck squamous cell carcinoma (HNSCC) cells (passage 8-18, mycoplasma negative by a polymerase chain reaction detection method) were cultured in DMEM/F12+10% fetal bovine serum+Antibiotic/Antimycotic in 6-well plates to 60% confluence. […] Reactions were terminated and analyzed by thin layer chromatography as described above.

[2] = system: 4T1 orthotopic breast cancer xenografts; test: In vivo image-guidance of chemocoxib A delivery, orthotopic 4T1 breast cancer xenografts; details: tumor homogenate, LC-MS, 49 h after CA-FQ-NPs (1 mg/kg CA, 1 mg/kg FQ, s.c.)
Method: To generate orthotopic breast cancer xenografts, the 4T1 tumor cells (1×10^6 in 200 μL sterile PBS) were injected into the inguinal mammary fat-pads of athymic Balb/C nu/nu female mice (4-6 weeks old, Jax Mice). Tumors were full-grown by 4-5 weeks (tumor volume=length×width^2×0.52).
The animals were dosed with CA-FQ-NPs in PBS (1 mg/kg CA, 1 mg/kg FQ, s.c.) and imaged on a Xenogen IVIS200 optical imaging instrument at 0.5 h, 1 h, 3 h, 6 h, 28 h, and 49 h post-injection. […] After in vivo imaging, the 49 h animals group was euthanized, and brain, muscle, tumor, liver, lung, and kidney tissues were collected (FIG. 32D).

[3] = COX-2 IC50, in vitro purified cox assay
[4] = mCOX-2 IC50, purified murine COX-2 (63 nM), inhibitor 20 min, then 1-14C-AA (50 μM) 37° C. 30 s, duplicates

Structure (SMILES) | IC50 (ovine COX-1) | COX-2 Selectivity Index (COX-1 IC50/COX-2 IC50) (murine COX-2) | IC50 (murine COX-2; [4]) | other results
O=C(O)c1ccc(C(=O)[O-])c(C2=c3cc4c5c(c3Oc3c2cc2c6c3CCCN6CCC2)CCC[N+]=5CCC4)c1 [5-ROX acid] |  |  |  | extinction ([1]; at 580 nm (5-ROX acid), 579 nm (fluorocoxib A), 586 nm (fluorocoxib Q1)): 36 mM⁻¹ cm⁻¹; quantum yield ([1]; at 604 nm (5-ROX acid), 602 nm (fluorocoxib A), 607 nm (fluorocoxib Q1)): 0.94
COc1ccc2c(c1)c(CC(=O)NCCCCNC(=O)c1ccc(C(=O)NC3CC(C)(C)N([O])C(C)(C)C3)c(C3=c4cc5c6c(c4Oc4c3cc3c7c4CCCN7CCC3)CCC[N+]=6CCC5)c1)c(C)n2C(=O)c1ccc(Cl)cc1 [Compound 2] | > 25000 nM | >75 | 330 nM | IC50 (murine COX-2; [3]): 332 nM
COc1ccc2c(c1)c(CC(=O)NCCCCNC(=O)c1ccc(C3=c4cc5c6c(c4Oc4c3cc3c7c4CCCN7CCC3)CCC[N+]=6CCC5)c(C(=O)Nc3ccc(C(=O)OC4CC(C)(C)N([O])C(C)(C)C4)cc3)c1)c(C)n2C(=O)c1ccc(Cl)cc1 [Compound 3] | > 25000 nM | >54 |  | IC50 (murine COX-2; [3]): 460 nM
COc1ccc2c(c1)c(CC(=O)NCCCCNC(=O)c1ccc(C3=c4cc5c6c(c4Oc4c3cc3c7c4CCCN7CCC3)CCC[N+]=6CCC5)c(C(=O)OC3CC(C)(C)N([O])C(C)(C)C3)c1)c(C)n2C(=O)c1ccc(Cl)cc1 [Compound 4] | > 25000 nM | >20 | 1240 nM | 
COc1ccc2c(c1)c(CC(=O)NCCCCNC(=O)c1ccc(C3=c4cc5c6c(c4Oc4c3cc3c7c4CCCN7CCC3)CCC[N+]=6CCC5)c(C(=O)NCC3CC(C)(C)N([O])C3(C)C)c1)c(C)n2C(=O)c1ccc(Cl)cc1 (centres unmarked) [Compound 5] | > 25000 nM | >13 | 1800 nM | 
COc1ccc2c(c1)c(CC(=O)NCCCCNC(=O)c1ccc(C(=O)[O-])c(C3=c4cc5c6c(c4Oc4c3cc3c7c4CCCN7CCC3)CCC[N+]=6CCC5)c1)c(C)n2C(=O)c1ccc(Cl)cc1 [Fluorocoxib B, reference compound] |  | >31 |  | IC50 (ovine COX-1; purified ovine COX-1 (22.5 nM), inhibitor 20 min, then 1-14C-AA (50 μM) 37° C. 30 s, duplicates, read-out: oCOX-1 IC50): > 25000 nM; IC50 (murine COX-2; purified murine COX-2 (63 nM), inhibitor 20 min, then 1-14C-AA (50 μM) 37° C. 30 s, duplicates, read-out: mCOX-2 IC50): 800 nM
COc1ccc2c(c1)c(CC(=O)NCCCCNC(=O)CCC(=O)O[C@H]1c3cc4c(cc3[C@@H](c3cc(OC)c(OC)c(OC)c3)[C@H]3C(=O)OC[C@@H]31)OCO4)c(C)n2C(=O)c1ccc(Cl)cc1 [chemocoxib A, reference compound] |  |  |  | IC50 (hCOX-2 in 1483 cells): 200 nM; level in tumor tissue [2]: 3.1 pmol/g tissue
